This passage reports IC50 results from US10759785B2, “Compounds” (ENTERPRISE THERAPEUTICS LIMITED, priority 2016, dated 2020).

Molecules are shown by their SMILES. Structures can show the parent of a compound that is named as a salt.

The target in the experiment is T1, ENaC (Homo sapiens, UniProt P37088+P51168+P51170).
T1 construct: host or cells: primary human bronchial epithelial cells (HBECs) differentiated at an air-liquid interface
T1 sequence (P37088 1-669): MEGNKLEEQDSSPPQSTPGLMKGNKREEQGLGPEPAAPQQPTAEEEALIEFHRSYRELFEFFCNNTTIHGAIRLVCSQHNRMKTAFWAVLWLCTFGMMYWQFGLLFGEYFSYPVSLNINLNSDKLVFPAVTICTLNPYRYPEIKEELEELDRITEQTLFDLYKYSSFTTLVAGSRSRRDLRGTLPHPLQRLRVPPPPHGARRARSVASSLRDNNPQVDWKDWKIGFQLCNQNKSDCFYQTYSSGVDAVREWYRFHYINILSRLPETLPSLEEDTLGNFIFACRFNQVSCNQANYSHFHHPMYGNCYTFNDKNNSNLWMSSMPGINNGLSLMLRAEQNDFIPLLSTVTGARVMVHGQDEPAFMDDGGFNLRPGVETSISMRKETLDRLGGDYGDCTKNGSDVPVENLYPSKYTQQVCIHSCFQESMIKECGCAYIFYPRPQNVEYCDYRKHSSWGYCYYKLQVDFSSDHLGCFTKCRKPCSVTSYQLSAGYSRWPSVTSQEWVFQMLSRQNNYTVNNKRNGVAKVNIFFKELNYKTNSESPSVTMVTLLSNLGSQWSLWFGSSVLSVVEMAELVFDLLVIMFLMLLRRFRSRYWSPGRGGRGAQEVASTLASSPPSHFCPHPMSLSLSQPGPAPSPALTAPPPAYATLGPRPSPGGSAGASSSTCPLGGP
T1 sequence (P51168 1-640): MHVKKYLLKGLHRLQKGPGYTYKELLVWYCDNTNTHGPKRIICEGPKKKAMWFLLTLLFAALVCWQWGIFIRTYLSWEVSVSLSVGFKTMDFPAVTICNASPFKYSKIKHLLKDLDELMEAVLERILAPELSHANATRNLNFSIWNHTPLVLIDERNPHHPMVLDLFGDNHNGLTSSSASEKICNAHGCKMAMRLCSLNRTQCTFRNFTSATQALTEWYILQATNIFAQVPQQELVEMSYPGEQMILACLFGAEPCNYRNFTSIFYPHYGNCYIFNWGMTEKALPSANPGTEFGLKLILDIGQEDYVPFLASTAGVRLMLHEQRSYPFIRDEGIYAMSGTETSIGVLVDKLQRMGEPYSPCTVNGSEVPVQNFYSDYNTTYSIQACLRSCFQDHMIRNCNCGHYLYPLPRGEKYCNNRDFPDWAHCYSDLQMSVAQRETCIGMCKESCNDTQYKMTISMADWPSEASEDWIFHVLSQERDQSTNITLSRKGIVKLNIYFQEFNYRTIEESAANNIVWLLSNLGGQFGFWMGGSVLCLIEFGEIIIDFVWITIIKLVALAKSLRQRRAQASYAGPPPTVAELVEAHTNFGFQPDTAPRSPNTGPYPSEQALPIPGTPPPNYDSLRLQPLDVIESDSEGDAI
T1 sequence (P51170 1-649): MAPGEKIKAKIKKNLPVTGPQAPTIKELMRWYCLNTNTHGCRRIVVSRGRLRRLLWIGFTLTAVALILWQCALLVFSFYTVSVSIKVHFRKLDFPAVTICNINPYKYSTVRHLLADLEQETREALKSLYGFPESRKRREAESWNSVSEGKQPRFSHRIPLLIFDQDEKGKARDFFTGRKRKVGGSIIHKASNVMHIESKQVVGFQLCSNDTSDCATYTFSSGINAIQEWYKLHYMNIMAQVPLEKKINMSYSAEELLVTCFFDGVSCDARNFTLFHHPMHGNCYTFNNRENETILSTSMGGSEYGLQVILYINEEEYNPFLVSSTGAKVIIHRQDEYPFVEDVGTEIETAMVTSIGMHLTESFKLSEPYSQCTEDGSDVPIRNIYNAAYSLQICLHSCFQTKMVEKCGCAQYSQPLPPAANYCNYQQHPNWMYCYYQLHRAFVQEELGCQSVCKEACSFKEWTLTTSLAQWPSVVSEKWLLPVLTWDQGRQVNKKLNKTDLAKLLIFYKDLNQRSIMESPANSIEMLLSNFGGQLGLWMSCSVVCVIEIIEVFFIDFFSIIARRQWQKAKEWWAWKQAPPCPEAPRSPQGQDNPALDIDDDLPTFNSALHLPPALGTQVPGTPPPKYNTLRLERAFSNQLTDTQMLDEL
Put plainly: Short circuit current assay to determine ENaC blocker potency in human bronchial epithelial cells. In kind it is cell-based. To be noted: 50% inhibition of total amiloride-sensitive ISC, HBECs, apical addition; read-out: Averages. ENaC Ic50 μm Avg. The protocol: Example 27—Short Circuit Current Assay to Determine ENaC Blocker Potency in Human Bronchial Epithelial Cells
Human bronchial epithelial cells (HBECs) (Lonza, UK) were cultured using a modification of the method described by Coote et al, (2008). Cells were seeded into plastic T-75 flasks and grown in Bronchial Epithelial Cell Growth Medium (BEGM) (Lonza, UK) supplemented with bovine pituitary extract (52 ng/mL), hydrocortisone (0.5 μg/mL), human recombinant Epidermal Growth Factor (0.5 ng/mL), epinephrine (0.5 ng/mL), transferrin (10 ng/mL), insulin (5 ng/mL), retinoic acid (0.1 ng/mL), triiodothyronine (6.5 ng/mL), gentamycin (50 μg/mL) and amphotericin-B (50 ng/mL). Medium was changed every 48 hours until cells were 90% confluent. Cells were then passaged and seeded (8.25×10^5 cells/insert) onto polycarbonate Snapwell™ inserts (Costar, UK) in differentiation media containing 50% DMEM in BGEM with the same supplements as above but without triiodothyronine and a final retinoic acid concentration of 50 nM (all-trans retinoic acid; Sigma-Aldrich, UK). Cells were maintained submerged for the first 7 days in culture after which time they were exposed to an apical air interface for the remainder of the culture period. From the first day of establishment of an ALI, HBEC were fed with a DMEM:HAMS F-12 (1:1) media containing 2% Ultroser G (Pall BioSepra, France) with gentamycin (50 μg/mL) and amphotericin B (50 ng/mL). Cells were used for short-circuit current assay between days 14-21 after the establishment of the ALI. At all stages of culture, cells were maintained at 37′C in 5% CO2 in an air incubator.
Short-Circuit Current (ISC) Measurements
Snapwell inserts were mounted in Costar Vertical Diffusion Chambers (Costar, UK) and were bathed with continuously gassed Ringer solution (5% CO2 in O2; pH 7.4) maintained at 37° C. containing (in mM): 120 NaCl, 25 NaHCO3, 3.3 KH2PO4, 0.8 K2HPO4, 1.2 CaCl2, 1.2 MgCl2 and 10 glucose. The solution osmolarity was always between 280-300 mOsm/kg H2O for all physiological salt solutions used. Cells were voltage clamped to 0 mV (model EVC4000, WPI). Transepithelial resistance (RT) was measured by applying a 2 mV pulse at 30 s intervals and calculating RT by Ohm's law. Data were recorded using a PowerLab workstation (ADInstruments, UK).
ENaC blocker compounds were added to the apical chamber from a 1000-fold stock solution (prepared in DMSO) to achieve a cumulative concentration response in terms of the inhibition of the basal ISC. At the completion of the concentration response, a supra-maximal concentration of amiloride (10 μM) was added. The concentration of test compound that induced a 50% inhibition of the total amiloride-sensitive ISC (IC50) was calculated using GraphPad Prism v6.05.

Consider `CCn1c(CNC(=O)c2nc(Br)cnc2N)[n+](CC)c2ccc(-c3cnn(C4CCN(C(=O)OC(C)(C)C)CC4)c3)cc21.[I-]` [Example 20, 2-{[(3-amino-6-bromopyrazin-2-yl)formamido]methyl}-6-(1-{1-[(tert-butoxy)carbonyl]piperidin-4-yl}-1H-pyrazol-4-yl)-1,3-diethyl-1H-1,3-benzodiazol-3-ium iodide], for which the IC50 (in general, the point on the concentration scale where inhibition reaches its midpoint) is 1 nM.
The same measure for `CCn1c(CNC(=O)c2nc(Br)cnc2N)[n+](CC)c2ccc(-c3cnn(C4CCNCC4)c3)cc21.Cl.[I-]` [Example 21, 2-{[(3-amino-6-bromopyrazin-2-yl)formamido]methyl}-1,3-diethyl-6-[1-(piperidin-4-yl)-1H-pyrazol-4-yl]-1H-1,3-benzodiazol-3-ium hydrochloride iodide]: 1 nM.
Regarding `CCn1c(CNC(=O)c2nc(Br)cnc2N)[n+](CC)c2ccc(-c3cnn(C4CCN(C(=N)N)CC4)c3)cc21.O=CO.O=C[O-]` [Example 22, 2-{[(3-amino-6-bromopyrazin-2-yl)formamido]methyl}-6-[1-(1-carbamimidoylpiperidin-4-yl)-1H-pyrazol-4-yl]-1,3-diethyl-1H-1,3-benzodiazol-3-ium formic acid formate], the IC50 was 2 nM.
As for `CCn1c(CNC(=O)c2nc(Br)cnc2N)[n+](CC)c2ccc(-c3cnn(C4CCN(C[C@H](O)[C@@H](O)[C@H](O)[C@H](O)CO)CC4)c3)cc21.O=CO.[Cl-]` [Example 23, 2-{[(3-amino-6-bromopyrazin-2-yl)formamido]methyl}-1,3-diethyl-6-(1-{1-[(2S,3R,4R,5R)-2,3,4,5,6-pentahydroxyhexyl]piperidin-4-yl}-1H-pyrazol-4-yl)-1H-1,3-benzodiazol-3-ium formic acid chloride], the IC50 stood at 2 nM.
The same measure for `CCn1c(CNC(=O)c2nc(Br)cnc2N)[n+](CC)c2ccc(OCCNC(=O)OC(C)(C)C)cc21.O=C[O-]` [Example 24, 2-{[(3-amino-6-bromopyrazin-2-yl)formamido]methyl}-6-(2-{[(tert-butoxy)carbonyl]amino}ethoxy)-1,3-diethyl-1H-1,3-benzodiazol-3-ium formate]: 2 nM.
In the case of `CCn1c(CNC(=O)c2nc(Br)cnc2N)[n+](CC)c2ccc(OCCN)cc21.Cl.[Cl-]` [Example 25, 2-{[(3-Amino-6-bromopyrazin-2-yl)formamido]methyl}-6-(2-aminoethoxy)-1,3-diethyl-1H-1,3-benzodiazol-3-ium hydrochloride chloride], the IC50 was determined as 2 nM.
As for `CCn1c(CNC(=O)c2nc(C#N)cnc2N)[n+](CC)c2ccc(OC)cc21` [Example 26, 2-{[(3-amino-6-cyanopyrazin-2-yl)formamido]methyl}-1,3-diethyl-6-methoxy-1H-1,3-benzodiazol-3-ium formate], the figure is 8 nM.
